In experiment [1] the target is T1, hGIP-R (Homo sapiens, UniProt P48546).
T1 construct: expressed in transfected cells
T1 sequence (P48546 22-466): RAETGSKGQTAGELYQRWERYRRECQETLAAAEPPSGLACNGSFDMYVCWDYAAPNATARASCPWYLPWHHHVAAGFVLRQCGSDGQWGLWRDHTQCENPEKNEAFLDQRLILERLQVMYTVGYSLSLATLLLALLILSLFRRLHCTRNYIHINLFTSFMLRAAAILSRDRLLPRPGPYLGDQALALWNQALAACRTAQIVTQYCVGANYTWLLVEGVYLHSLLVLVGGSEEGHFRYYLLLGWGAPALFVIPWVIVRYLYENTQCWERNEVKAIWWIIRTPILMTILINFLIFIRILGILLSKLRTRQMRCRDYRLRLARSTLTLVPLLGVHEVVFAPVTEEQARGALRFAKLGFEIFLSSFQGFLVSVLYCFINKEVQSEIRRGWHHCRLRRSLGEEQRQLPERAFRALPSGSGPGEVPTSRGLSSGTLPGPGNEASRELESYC
The experiment can be described thus: cAMP functional assay, cells expressing human GIP receptor (primary assay). In kind it is cell-based. The following applies: n = 2. As to the method: (§1) The biological activities/receptor potencies of the synthetic GLP-1 peptides described herein are suitably tested for biological activity, e.g., stimulation of one or more cellular receptor responses. Stable cell lines expressing human, mouse, rat, or dog GLP-1 receptor (GLP-1R), glucagon receptor (GCGR) or glucose-dependent insulinotropic peptide (gastric inhibitory polypeptide) receptor (GIPR) are generated in HEK293 cells or CHO cells by standard methods.
(§2) cAMP assays were performed using “assay buffer”: Assay Buffer: 0.1% BSA (Sigma #A3059) in HBSS (Sigma #H8264) with 25 mM HEPES, pH 7.4 and containing 0.5 mM IBMX (Sigma #17018).
(§3) Low protein binding 384-well plates (Greiner #781280) are used to perform eleven 1 in 5 serial dilutions of test samples which are made in assay buffer. All sample dilutions are made in duplicate.
(§4) A frozen cryo-vial of cells expressing the receptor of interest is thawed rapidly in a water-bath, transferred to pre-warmed assay buffer and spun at 240× g for 5 minutes. Cells are re-suspended in assay buffer at a batch-dependent optimized concentration (e.g. hGCGR cells at 2×10^5 cells/ml, hGLP-1R and hGIPR cells at 1×10^5 cells /ml).
(§5) From the dilution plate, a 5 μL replica is stamped onto a black shallow-well u-bottom 384-well plate (Corning #3676). To this, 5 μL cell suspension is added and the plates incubated at room temperature for 30 minutes.
(§6) cAMP levels are measured using a commercially available cAMP dynamic 2 HTRF kit (Cisbio, Cat #62AM4PEJ), following the two step protocol as per manufacturer's recommendations. In brief; anti-cAMP cryptate (donor fluorophore) and cAMP-d2 (acceptor fluorophore) are made up separately by diluting each 1/20 in conjugate & lysis buffer provided in the kit. 5 μL anti-cAMP cryptate is added to all wells of the assay plate, and 5 μL cAMP-d2 is added to all wells except non-specific binding (NSB) wells, to which conjugate and lysis buffer are added. Plates are incubated at room temperature for one hour and then read on an Envision (Perkin Elmer) using excitation wavelength of 320 nm and emission wavelengths of 620 nm & 665 nm. EC50 values of the synthetic peptides determined in cAMP assays are then determined.

In experiment [2] the target is T2, hGLP-1R (Homo sapiens, UniProt P43220).
T2 construct: expressed in transfected cells
T2 sequence (P43220 24-463): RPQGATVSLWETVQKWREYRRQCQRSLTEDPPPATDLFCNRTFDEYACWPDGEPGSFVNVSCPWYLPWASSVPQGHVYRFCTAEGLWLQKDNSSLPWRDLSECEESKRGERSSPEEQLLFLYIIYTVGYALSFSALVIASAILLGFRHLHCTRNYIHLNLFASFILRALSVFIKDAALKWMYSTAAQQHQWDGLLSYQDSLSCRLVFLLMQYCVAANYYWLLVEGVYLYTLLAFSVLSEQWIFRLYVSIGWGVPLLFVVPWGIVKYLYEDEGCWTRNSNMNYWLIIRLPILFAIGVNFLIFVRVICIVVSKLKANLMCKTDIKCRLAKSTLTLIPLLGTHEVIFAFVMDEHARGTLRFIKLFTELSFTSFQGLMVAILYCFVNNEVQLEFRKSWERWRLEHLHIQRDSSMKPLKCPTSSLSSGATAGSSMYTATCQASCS
As to the kind of experiment: cAMP functional assay, cells expressing human GLP-1 receptor (primary assay). It is filed as cell-based. Conditions: n = 2. As to the method:
as §1, §2, §3, §4, §5, §6

Where a SMILES comes first, the peptide text is derived from it. [ ]: non-standard residue; d: D form. αMeF = C[C@](N)(Cc1ccccc1)C(=O)O; Aib = CC(C)(N)C(=O)O

As a reminder, the EC50 is the midpoint of the concentration-response curve. Low values mean a more potent agent, high ones a less potent agent. For `CC[C@H](C)[C@H](NC(=O)[C@](C)(Cc1ccccc1)NC(=O)[C@H](CCC(=O)O)NC(=O)[C@H](CCCCN)NC(=O)[C@H](C)NC(=O)[C@H](C)NC(=O)[C@H](CCC(N)=O)NC(=O)CNC(=O)[C@H](CCC(=O)O)NC(=O)[C@H](CC(C)C)NC(=O)[C@](C)(Cc1ccccc1)NC(=O)[C@H](CO)NC(=O)[C@H](CO)NC(=O)[C@@H](NC(=O)[C@H](CC(=O)O)NC(=O)[C@H](CO)NC(=O)[C@@H](NC(=O)[C@](C)(Cc1ccccc1)NC(=O)[C@H](CO)NC(=O)CNC(=O)[C@H](CCC(=O)O)NC(=O)C(C)(C)NC(=O)[C@@H](N)Cc1c[nH]cn1)[C@@H](C)O)C(C)C)C(=O)N[C@@H](C)C(=O)N[C@@H](Cc1c[nH]c2ccccc12)C(=O)N[C@@H](CC(C)C)C(=O)N[C@H](C(=O)N[C@@H](CCCCN)C(=O)NCC(=O)N[C@@H](CCCNC(=N)N)C(N)=O)C(C)C` [SEQ ID NO: 34, H-(Aib)^2-EG-(S)^5-(α-MeF)^6-TSDV^10 SS-(α-MeF)^13-LE^15 GQAAK^20 E-(α-MeF)^22-IAW^25 LVKGR^30] (H-H[Aib]EGS[αMeF]TSDVSS[αMeF]LEGQAAKE[αMeF]IAWLVKGR-NH2), the values for the EC50 in experiment [1] and in experiment [2] were 102 nM and 0.0225 nM, respectively.
With `CC[C@H](C)[C@H](NC(=O)[C@H](Cc1ccccc1)NC(=O)[C@H](CCC(=O)O)NC(=O)[C@H](CCCCN)NC(=O)[C@H](C)NC(=O)[C@H](C)NC(=O)[C@H](CCC(N)=O)NC(=O)CNC(=O)[C@H](CCC(=O)O)NC(=O)[C@H](CC(C)C)NC(=O)[C@](C)(Cc1ccccc1)NC(=O)[C@H](CO)NC(=O)[C@H](CO)NC(=O)[C@@H](NC(=O)[C@H](CC(=O)O)NC(=O)[C@H](CO)NC(=O)[C@@H](NC(=O)[C@](C)(Cc1ccccc1)NC(=O)[C@H](CO)NC(=O)CNC(=O)[C@H](CCC(=O)O)NC(=O)C(C)(C)NC(=O)[C@@H](N)Cc1c[nH]cn1)[C@@H](C)O)C(C)C)C(=O)N[C@@H](C)C(=O)N[C@@](C)(Cc1ccccc1)C(=O)N[C@@H](CC(C)C)C(=O)N[C@H](C(=O)N[C@@H](CCCCN)C(=O)NCC(=O)N[C@@H](CCCNC(=N)N)C(N)=O)C(C)C` [SEQ ID NO: 35, H-(Aib)^2-EG-(S)^5-(α-MeF)^6-TSDV^10 SS-(α-MeF)^13-LE^15 GQAAK^20 EFIA-(α-MeF)^25 LVKGR^30] (H-H[Aib]EGS[αMeF]TSDVSS[αMeF]LEGQAAKEFIA[αMeF]LVKGR-NH2), the EC50 in experiment [1] was determined as 102 nM; in experiment [2], 0.0201 nM.
For `CC[C@H](C)[C@H](NC(=O)[C@](C)(Cc1ccccc1)NC(=O)[C@H](CCC(=O)O)NC(=O)[C@H](CCCCN)NC(=O)[C@H](C)NC(=O)[C@H](C)NC(=O)[C@H](CCC(N)=O)NC(=O)CNC(=O)[C@H](CCC(=O)O)NC(=O)[C@H](CC(C)C)NC(=O)[C@H](Cc1ccc(O)cc1)NC(=O)[C@H](CO)NC(=O)[C@H](CO)NC(=O)[C@@H](NC(=O)[C@H](CC(=O)O)NC(=O)[C@H](CO)NC(=O)[C@@H](NC(=O)[C@](C)(Cc1ccccc1)NC(=O)[C@H](CO)NC(=O)CNC(=O)[C@H](CCC(=O)O)NC(=O)C(C)(C)NC(=O)[C@@H](N)Cc1c[nH]cn1)[C@@H](C)O)C(C)C)C(=O)N[C@@H](C)C(=O)N[C@@](C)(Cc1ccccc1)C(=O)N[C@@H](CC(C)C)C(=O)N[C@H](C(=O)N[C@@H](CCCCN)C(=O)NCC(=O)N[C@@H](CCCNC(=N)N)C(N)=O)C(C)C` [SEQ ID NO: 36, H-(Aib)^2-EG-(S)^5-(α-MeF)^6-TSDV^10 SSYLE^15 GQAAK^20 E-(α-MeF)^22-IA-(α-MeF)^25 LVKGR^30] (H-H[Aib]EGS[αMeF]TSDVSSYLEGQAAKE[αMeF]IA[αMeF]LVKGR-NH2), the results for the EC50 in experiment [1] and in experiment [2] were 102 nM and 0.0267 nM, respectively.
For `CC[C@H](C)[C@H](NC(=O)[C@H](Cc1ccccc1)NC(=O)[C@H](CCC(=O)O)NC(=O)[C@H](CCCCN)NC(=O)[C@H](C)NC(=O)[C@H](C)NC(=O)[C@H](CCC(N)=O)NC(=O)CNC(=O)[C@H](CCC(=O)O)NC(=O)[C@H](CC(C)C)NC(=O)[C@](C)(Cc1ccccc1)NC(=O)[C@H](CO)NC(=O)[C@H](CO)NC(=O)[C@@H](NC(=O)[C@H](CC(=O)O)NC(=O)[C@H](CO)NC(=O)[C@@H](NC(=O)[C@](C)(Cc1ccccc1)NC(=O)[C@@H](NC(=O)CNC(=O)[C@H](CCC(=O)O)NC(=O)C(C)(C)NC(=O)[C@@H](N)Cc1c[nH]cn1)[C@@H](C)O)[C@@H](C)O)C(C)C)C(=O)N[C@@H](C)C(=O)N[C@@](C)(Cc1ccccc1)C(=O)N[C@@H](CC(C)C)C(=O)N[C@H](C(=O)N[C@@H](CCCCN)C(=O)NCC(=O)N[C@@H](CCCNC(=N)N)C(N)=O)C(C)C` [SEQ ID NO: 30, H-(Aib)^2-EGT^5-(α-MeF)^6-TSDV^10 SS-(α-MeF)^13-LE^15 GQAAK^20 EF^22-IA-(α-MeF)^25 LVKGR^30] (H-H[Aib]EGT[αMeF]TSDVSS[αMeF]LEGQAAKEFIA[αMeF]LVKGR-NH2) the same measures were 98.9 nM and 0.0117 nM.
For `CC[C@H](C)[C@H](NC(=O)[C@](C)(Cc1ccccc1)NC(=O)[C@H](CCC(=O)O)NC(=O)[C@H](CCCCN)NC(=O)[C@H](C)NC(=O)[C@H](C)NC(=O)[C@H](CCC(N)=O)NC(=O)CNC(=O)[C@H](CCC(=O)O)NC(=O)[C@H](CC(C)C)NC(=O)[C@H](Cc1ccc(O)cc1)NC(=O)[C@H](CO)NC(=O)[C@H](CO)NC(=O)[C@@H](NC(=O)[C@H](CC(=O)O)NC(=O)[C@H](CO)NC(=O)[C@@H](NC(=O)[C@](C)(Cc1ccccc1)NC(=O)[C@@H](NC(=O)CNC(=O)[C@H](CCC(=O)O)NC(=O)C(C)(C)NC(=O)[C@@H](N)Cc1c[nH]cn1)[C@@H](C)O)[C@@H](C)O)C(C)C)C(=O)N[C@@H](C)C(=O)N[C@@](C)(Cc1ccccc1)C(=O)N[C@@H](CC(C)C)C(=O)N[C@H](C(=O)N[C@@H](CCCCN)C(=O)NCC(=O)N[C@@H](CCCNC(=N)N)C(N)=O)C(C)C` [SEQ ID NO: 31, H-(Aib)^2-EGT^5-(α-MeF)^6-TSDV^10 SSYLE^15 GQAAK^20 E-(α-MeF)^22-IA-(α-MeF)^25 LVKGR^30] the same measures were 102 nM and 0.0155 nM.
As for `CC[C@H](C)[C@H](NC(=O)[C@](C)(Cc1ccccc1)NC(=O)[C@H](CCC(=O)O)NC(=O)[C@H](CCCCN)NC(=O)[C@H](C)NC(=O)[C@H](C)NC(=O)[C@H](CCC(N)=O)NC(=O)CNC(=O)[C@H](CCC(=O)O)NC(=O)[C@H](CC(C)C)NC(=O)[C@](C)(Cc1ccccc1)NC(=O)[C@H](CO)NC(=O)[C@H](CO)NC(=O)[C@@H](NC(=O)[C@H](CC(=O)O)NC(=O)[C@H](CO)NC(=O)[C@@H](NC(=O)[C@](C)(Cc1ccccc1)NC(=O)[C@@H](NC(=O)CNC(=O)[C@H](CCC(=O)O)NC(=O)C(C)(C)NC(=O)[C@@H](N)Cc1c[nH]cn1)[C@@H](C)O)[C@@H](C)O)C(C)C)C(=O)N[C@@H](C)C(=O)N[C@@](C)(Cc1ccccc1)C(=O)N[C@@H](CC(C)C)C(=O)N[C@H](C(=O)N[C@@H](CCCCN)C(=O)NCC(=O)N[C@@H](CCCNC(=N)N)C(N)=O)C(C)C` [SEQ ID NO: 19, H-(Aib)^2-EGT^5-(α-MeF)^6-TSDV^10 SS-(α-MeF)^13-LE^15 GQAAK^20 E-(α-MeF)^22-IA-(α-MeF)^25 LVKGR^30] (H-H[Aib]EGT[αMeF]TSDVSS[αMeF]LEGQAAKE[αMeF]IA[αMeF]LVKGR-NH2), the EC50 in experiment [1] amounted to 102 nM; in experiment [2] it was 0.026 nM.

Source of the values: patent publication US20160318987A1 (MEDIMMUNE LIMITED, priority 2013, published 2016).
